In ChEMBL document CHEMBL1127934, “Synthesis of a series of brominated 1-phenyl-2-pyridylethenes as inhibitors of the protein-tyrosine kinase p56lck” (Bioorg Med Chem Lett, 1994):
pIC50: −log10 of the molar value.

Target: Tyrosine-protein kinase Lck (Homo sapiens, UniProt P06239)
Experiment: Inhibition of p56 Lck tyrosine kinase

Tyrosine-protein kinase Lck, sequence (P06239 whole entry): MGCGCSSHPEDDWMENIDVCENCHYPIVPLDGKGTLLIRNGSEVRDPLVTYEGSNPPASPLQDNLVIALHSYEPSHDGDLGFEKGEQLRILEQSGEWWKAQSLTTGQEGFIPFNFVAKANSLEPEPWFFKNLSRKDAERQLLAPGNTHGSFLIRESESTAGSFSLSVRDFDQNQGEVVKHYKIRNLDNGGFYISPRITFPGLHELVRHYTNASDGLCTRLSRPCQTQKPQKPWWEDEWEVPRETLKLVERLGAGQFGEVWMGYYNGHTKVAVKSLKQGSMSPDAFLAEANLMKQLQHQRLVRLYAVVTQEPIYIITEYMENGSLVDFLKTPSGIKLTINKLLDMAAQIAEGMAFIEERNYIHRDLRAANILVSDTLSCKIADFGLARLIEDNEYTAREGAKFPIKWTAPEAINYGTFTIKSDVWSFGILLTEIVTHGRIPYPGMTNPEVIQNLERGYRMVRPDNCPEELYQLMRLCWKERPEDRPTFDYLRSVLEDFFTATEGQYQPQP

Structure (SMILES)	pIC50
COc1c(Br)cc(/C=C(\C#N)c2ccccn2)cc1Br	< 2.60
COc1c(Br)cc(/C=C(\C#N)c2cccnc2)cc1Br	< 2.60
COc1cc(/C=C(\C#N)c2cccnc2)cc(Br)c1O	3.62

Continued, values first:

pIC50	Structure (SMILES)
3.98	N#C/C(=C\c1cc(Br)c(O)c(Br)c1)c1ccccn1
< 2.68	N#CC(Cc1cc(Br)c(O)c(Br)c1)c1ccccn1 (stereo not drawn)
3.77	N#C/C(=C\c1cc(Br)c(O)c(Br)c1)c1cccnc1

Target: not listed separately
Experiment: Inhibition of p56 Lck tyrosine kinase

pIC50	Structure (SMILES)
3.29	COc1cc(/C=C/c2cccnc2)cc(OC)c1OC
2.66	COc1cc(/C=C/c2ccccn2)cc(OC)c1OC
